In patent US20110200662A1, “Method For The Treatment Of Proliferative Disorders Of The Eye” (priority 2008, published 2011):

What was measured:
[1] = tested on: DNA repair response (RPA, γ-H2AX); details: non-proliferating cells; cited from earlier work
cell proliferation = details: cited from earlier work
[2] = tested on: approximately 60 different human cancer cell lines; test: NCI DTP Human Tumor Cell Line Screen (colorimetric assay, 48 hours); format: cell-based; details: average value across the cell lines, 48 hours incubation
Protocol: FIG. 1 summarizes the screening results obtained with forty different anticancer agents in the National Cancer Institute (NCI) DTP Human Tumor Cell Line Screen in which approximately 60 different human cancer cell lines were incubated for 48 hours with the anticancer drugs. […] For details on the assay, find on the wide world web at dtp.nci.nih.gov/branches/btb/ivclsp. FIG. 1 presents for each drug the average value across the cell lines of the TGI, the LC50, and the ratio of LC50 to TGI.
In a preferred embodiment the drug is bizelesin. Bizelesin has a number of unexpected properties that make it highly suited for treating proliferative disorders of the eye. The drug is an ultra-potent irreversible inhibitor of cell proliferation. As few as 1 to approximately 10 bizelesin-DNA crosslinks can inhibit cell proliferation. The small number of drug molecules per cell needed to inhibit clonogenic potential limits collateral damage to cellular processes in nonproliferating cells. […] There is a large difference between the bizelesin concentration that inhibits cell proliferation and the concentration that kills cells. This unexpected property is in sharp contrast to typical anticancer drugs as evidence by the data shown in FIG. 1, which summarizes screening results obtained with forty different anticancer agents in the National Cancer Institute (NCI) DTP Human Tumor Cell Line Screen. […]

[3] = tested on: approximately 60 different human cancer cell lines; details: average value across the cell lines, 48 hours incubation; cited from earlier work
[4] = tested on: HCT116 colon cancer cells; details: 250 times the GC50 concentration for 4 days; cited from earlier work
[5] = unless given intravascularly; cited from earlier work
[6] = tested on: retinal neovascularization; test: Mouse model of ischemic proliferative retinopathy, intravitreal injection
Protocol: Intravitreal bizelesin was evaluated in the mouse model of ischemic proliferative retinopathy.
Bizelesin was dissolved in DMSO PharmaSolvent (Gaylord Chemical, Inc.) at 20 microgram/ml and filtered sterilized with a 0.2 micron Milliex-LG Millipore filter. […] The bizelesin solution was stored at −65 C or below. Immediately prior to administration the drug solution was thawed and diluted with sterile phosphate buffered saline (PBS).
In brief, for the ischemic proliferative retinopathy model, liters of C57BL/6 mice were exposed to 75% oxygen from P7 to P12 (P=age in days) and then returned to room air. On P12 the mice were anesthetized and given an intravitreal injection of 1 microliter of bizelesin solution or 1 microliter of control diluent. The dose of bizelesin ranged from 0.6 picogram to 0.6 nanograms. On the evening of P16 the mice were given an intravitreal injection of anti-mouse platelet endothelial cell adhesion molecule-1 (PECAM-1) antibody, which stain new blood vessels. On P17, the retinas were isolated, flat mounts prepared, and the area of neovascularization was determined with fluorescent microscopy and computerized image analysis.

[7] = tested on: choroidal neovascularization; test: Laser induced mouse model of choroidal neovascularization, intravitreal injection; details: for inhibition of neovascularization in the area of the laser burn: single intravitreal dose of 0.6 ng, day 14
Source text: Details of the model are provided in Xie, B. et al., “Blockade of Sphingosine-1-phosphate Reduces Macrophage Influx and Retinal and Choroidal Neovascularization,” J Cell Physiol, 218(1): 192-8 (January 2009 Bizelesin was formulated in PBS as described in Example 1. In brief, 5-6 week old C57BL/6 mice on day 0 were anesthetized and choroidal neovascularization was induced by laser photocoagulation-induced rupture of Bruch's membrane. The mice were then given an intravitreal injection of 1 microliter of control diluent in one eye and in the contralateral fellow eye 1 microliter of solution containing 6 ng to 0.006 ng of Bizelesin. Ten mice were employed per dose level. On day 14 the mice were perfused with fluorescein-labeled dextran, the retinas were isolated, flat mounts prepared, and the area of neovascularization was determined with fluorescent microscopy and computerized image analysis.

cellular DNA = details: cited from earlier work
retinal fibrosis = details: long-term follow-up; cited from earlier work

Cc1c[nH]c2c1[C@@]13C[C@@H]1CN(C(=O)c1cc4cc(NC(=O)c5cc6ccccc6o5)ccc4[nH]1)C3=CC2=O [adozelesin]
DNA repair response [1]: does not trigger A DNA repair response | GI50 (inhibition of cell proliferation) (cell proliferation): picomolar to sub-picomolar range

Cc1c[nH]c2c(O)cc3c(c12)[C@H](CCl)CN3C(=O)c1cc2cc(NC(=O)Nc3ccc4[nH]c(C(=O)N5C[C@@H](CCl)c6c5cc(O)c5[nH]cc(C)c65)cc4c3)ccc2[nH]1 [bizelesin]
ratio of LC50 to TGI [2]: 480 | TGI (drug concentration that completely inhibited cell growth) [3]: picomolar range | apoptosis [4]: did not cause apoptosis | GI50 (inhibition of cell proliferation) (cell proliferation): picomolar to sub-picomolar range | systemic bioavailability [5]: poor systemic bioavailability | clinical evidence of ocular toxicity ([6]; intravitreal 0.6 nanogram): without any clinical evidence of ocular toxicity | average area of neovascularization compared to diluent (p value) ([6]; single dose of 0.06 ng): highly statistically significant | average area of neovascularization compared to diluent (p value) ([6]; single dose of 0.6 ng): highly statistically significant | inhibition of proliferative retinopathy and neovascularization ([6]; single intravitreal injection of 0.6 nanogram on P12, read on P17): nearly complete inhibition | clinical evidence of ocular toxicity ([7]; intravitreal 6 ng to 0.006 ng): no clinical evidence of ocular toxicity | inhibition of neovascularization in the area of the laser burn [7]: nearly complete inhibition | inhibition of neovascularization in the area of the laser burn ([7]; listed as Bizelesin): dramatic inhibition

N.N.[Cl][Pt][Cl] [cisplatin]
DNA adducts formed at concentrations that inhibit cell growth by 50% (cellular DNA): approximately 14,000

B1: ranibizumab (antibody, chains of the INN, looked up, V domains shown)
VH: EVQLVESGGGLVQPGGSLRLSCAASGYDFTHYGMNWVRQAPGKGLEWVGWINTYTGEPTYAADFKRRFTFSLDTSKSTAYLQMNSLRAEDTAVYYCAKYPYYYGTSHWYFDVWGQGTLVTVSS
VL: DIQLTQSPSSLSASVGDRVTITCSASQDISNYLNWYQQKPGKAPKVLIYFTSSLHSGVPSRFSGSGSGTDFTLTISSLQPEDFATYYCQQYSTVPWTFGQGTKVEIK
patients who developed retinal fibrosis (retinal fibrosis): 50%
